Assay: oral 10 mg cetirizine pill during allergic reaction
Format: in vivo, human
Conditions: person, 10 mg pill around noon
Description: The irritants in degraded fall leaves and yard debris caused an overwhelming allergic reaction. They took a pill of 10 mg cetirizine around 12 o'clock noon time. […] They suffered a severe running nose and sneezes. They used the anti-sneeze sticks and cotton swabs described in previous examples frequently.

In the case of O=C(O)COCCN1CCN(C(c2ccccc2)c2ccc(Cl)cc2)CC1 (stereo not shown) [cetirizine], the “effect of oral drug on allergic reaction, running nose and sneezes” value is reported as “did not take effect as expected”.

Source: patent US20150342906A1, “Anti-sneeze and nose vestibule care - compositions, methods, and devices” (priority 2014, published 2015)
